Where “and” joins values, the source holds several entries; their conditions need not be identical. Equal entries are not always repeated. Where two headings read alike, the source gives them in different places.
Assays:
[1] = MTT cytotoxicity assay against HepG2 cell line; assay type: cell-based, human; details: human, HepG2 cells, HepG2, 24 h incubation, mean ± SD, read-out: EC50 (cytotoxicity, concentration leading to the death of 50% of the cells)
Procedure: (§1) A hepatocellular carcinoma cell line HepG2, recognized for studying the metabolism of anticancer drugs, was used. The viability of HepG2 cell line culture after 24 h incubation with the compounds using the MTT (3-[4,5-dimethylthiazol-2-yl]-2,5-diphenyl tetrazolium bromide) assay was evaluated, and doxorubicin (Doxo) was used as a positive control.
(§2) HepG2 human hepatocyte carcinoma cell line was purchased from European Collection of Authenticated Cell Cultures (ECACC). HepG2 cells (ECACCC# 85011430) were cultured in Dulbecco’s Modified Eagle´s Medium (DMEM) supplemented with 10% fetal bovine serum, antibiotic-antimycotic (100 U/mL penicillin-streptomycin and 0.25 μg amphotericin B) and 2 mM L-glutamine at 37 °C in an atmosphere containing 5% CO2. The 3-(4,5-dimethylthiazol-2-yl)-2,5-diphenyltetrazolium bromide (MTT) method, described in Gaspar et al., [50] was used for assaying cell viability. Briefly, the cells were grown in the supplemented medium in 96-well microplates in an incubator with 5% CO2 at 37 °C, until reaching 100% confluence. After growth, the medium was replaced by the compounds’ solutions at different concentrations. The compounds were solubilized in supplemented medium containing 0.5% DMSO final concentration. Cells treated only with medium containing 0.5% DMSO served as a negative control. After 24 h incubation, the compound’s solutions were replaced by 100 µL of 0.5 mg/mL MTT solution in DMEM culture medium and incubated at 37 °C, 5% CO2 for 2–4 h. The formed formazan crystals were dissolved in 200 µL of methanol and the absorbance at 595 nm was registered against 630 nm (reference wavelength). For each concentration of the compounds, the percentage of growth inhibition/cytotoxicity was evaluated considering 100% of viability for the absorbance of the negative control. Dose-response curves for each compound were plotted using the Graph Pa Prim 4.0 software and the effective concentration leading to the death of 50% of the cells (EC50) was calculated. All experiments were replicated at least six times.

[2] = tested on: HepG2 human hepatocyte carcinoma cell line; experiment: MTT cytotoxicity assay against HepG2 cell line; assay type: cell-based; details: HepG2, 24 h incubation, mean ± SD, read-out: EC50 (cytotoxicity, concentration leading to the death of 50% of the cells)
Procedure: as §1, §2

[3] = target: acetylcholinesterase (AChE) (Homo sapiens, UniProt P22303); experiment: AChE inhibition assay (Ellman's colorimetric method); assay type: biochemical; details: for IC50: concentration that inhibits 50% of the AChE activity, read-out: AChEIC50
Procedure: The inhibition of acetylcholinesterase (AChE) enzymatic activity was measured using the Ellman’s colorimetric method with some alterations. Briefly, 325 μL of 50 mM Tris–HCl buffer (pH 8), 100 μL of a compound’s solution with 1% DMSO, and 25 μL of AChE (0.1 U/mL) in 50 mM Tris–HCl buffer pH 8 were incubated for 15 min. Subsequently, 75 μL of acetylthiocholine iodide (AChI) (0.023 mg/mL) and 475 μL of 3 mM 5,5′-dithiobis(2-nitrobenzoic acid) (DTNB) in Tris–HCl buffer (pH 8) containing 0.05 M NaCl and 0.021 M MgCl2 were added to initiate the reaction. The initial rate of the enzymatic reaction was quantified by measuring the absorbance at 405 nm for 5 min (V[compound]). A control reaction was carried out using 1% DMSO water solution, instead of the compound’s solution, and this initial rate was considered 100% of the enzymatic activity, Vcontrol. The percentage of AChE inhibition (I) for various concentrations of the different compounds was determined as the ratio of V[compound] and Vcontrol. For each compound, both the AChEIC50 value (the concentration that inhibits 50% of the AChE activity) and the percentage of inhibition at the compound concentration of 50 µM (Inhibition50µM) were calculated by plotting I for each compound concentration. All the assays were carried out in triplicate.

[4] = Cyclic voltammetry in acetonitrile; assay type: physicochemical; details: for Ipa/Ipc: Tables S1/S2, acetonitrile; for Epa. Epc: Tables S1/S2, peak separation; for ∆E (I) / E1/2 (I) / Epc (I): first reduction wave; for ∆E (I) / E1/2 (I) / Epc (I) / Epc (II) / ∆E (II) / E1/2 (II): scan rate 0.100 V·s−1; for Epc (II) / ∆E (II) / E1/2 (II): second reduction wave
Description: To obtain an insight into the electronic character of the studied naphthoquinone derivatives and to find out possible relationships with their potential biological activities, the electrochemical behavior of 1,4-NQ (1) and 1,2-NQ (2) and their 2-substituted-1,4-NQ (3a–f) and 4-substituted-1,2-NQ derivatives (4a–h), respectively, were studied by cyclic voltammetry (CV) in aprotic medium (CH3CN + TBAP, 0.1 mol.L^−^1) and the electrochemical selected data are listed in Table 3 (for complete electrochemical data, see Tables S1 and S2, supplementary material).
The redox potentials were measured by cyclic voltammetry using an EG&G Princeton Applied Research (PAR) Model 273A potentiostat/galvanostat monitored by a personal computer with the Electrochemistry PowerSuite v2.51 software from PAR. Cyclic voltammograms were obtained in 1 mM of compounds in anhydrous acetonitrile solutions containing tetrabutylammonium hexafluorophosphate (TBAPF6) 0.1 M as supporting electrolyte. A three-electrode configuration cell was used with a homemade platinum disk working electrode (1.0 mm diameter) probed by a Luggin capillary connected to a silver-wire pseudo-reference electrode and a platinum wire auxiliary electrode. The potentials were scanned from −1.8 to 1.8 V at a scan rate of 100 mV·s^−^1. All measurements were done at room temperature and the solutions were deaerated with nitrogen atmosphere before use. All the potentials reported were measured against the ferrocene/ferrocenium redox couple as internal standard and corrected to SCE (using the ferrocenium/ferrocene redox couple E1/2 = 0.40 V vs. SCE).

AChE = details: read-out: AChEIC50 of reference AChE inhibitors; cited from earlier work
[5] = read-out: Inhibition50µM (AChE inhibition)
[6] = read-out: Inhibiton50µM (μM±SD)
[7] = Tables S1/S2, every redox process listed, acetonitrile, vs SCE, 100 mV.s-1

acetylcholinesterase (AChE), sequence (P22303 32-614): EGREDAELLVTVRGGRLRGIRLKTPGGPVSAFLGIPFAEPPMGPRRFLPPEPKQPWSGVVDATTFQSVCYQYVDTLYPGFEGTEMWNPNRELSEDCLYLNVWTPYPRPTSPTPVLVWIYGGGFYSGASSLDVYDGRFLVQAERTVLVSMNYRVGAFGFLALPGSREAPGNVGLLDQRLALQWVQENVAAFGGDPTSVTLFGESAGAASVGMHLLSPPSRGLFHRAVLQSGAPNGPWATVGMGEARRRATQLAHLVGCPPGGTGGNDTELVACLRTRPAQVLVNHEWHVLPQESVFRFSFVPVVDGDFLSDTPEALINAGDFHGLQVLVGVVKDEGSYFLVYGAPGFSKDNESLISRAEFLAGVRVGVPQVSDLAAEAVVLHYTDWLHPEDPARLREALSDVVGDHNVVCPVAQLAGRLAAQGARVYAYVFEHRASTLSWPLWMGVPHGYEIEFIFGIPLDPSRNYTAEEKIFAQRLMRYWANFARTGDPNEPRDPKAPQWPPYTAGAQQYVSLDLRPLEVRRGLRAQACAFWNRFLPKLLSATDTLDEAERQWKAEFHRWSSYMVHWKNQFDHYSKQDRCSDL

Row | SMILES | EC50 at 24 h [1] | inhibition at 50 µM [3, 6] | Ipa/Ipc ([4]; 100 mV.s-1) | E1/2 [4, 7] | Epa. Epc ([4]; acetonitrile, 100 mV.s-1) | ∆E (I) ([4]; acetonitrile) | E1/2 (I) ([4]; acetonitrile, vs SCE) | Epc (I) ([4]; acetonitrile, vs SCE) | Epc (II) ([4]; acetonitrile, vs SCE) | also measured
1 | O=C1C=CC(=O)c2ccccc21 [Compound 1, 1,4-naphthoquinone, reference compound] | 32.2 ± 1.4 µM | 50.7 ± 2.3% | 0.9 | -0.66 V | 80 mV | 80 mV | −0.66 V | −0.70 V | −1.36 V | EC50 ([2]; listed as 1,4-NQ): 32 µM; inhibition at 50 µM [3, 5]: 51%
2 | O=C1C=Cc2ccccc2C1=O [Compound 2, 1,2-naphthoquinone] | 25.6 ± 1.1 µM | 34.9 ± 5.2% | 1.0 |  | 110 mV and 140 mV | 110 mV | −0.50 V | −0.55 V | −0.98 V | EC50 ([2]; listed as 1,2-NQ): 26 µM; inhibition at 50 µM [3, 5]: 35%; ∆E (II) ([4]; acetonitrile): 140 mV; E1/2 (II) ([4]; acetonitrile, vs SCE): −0.91 V
3 | Nc1ccc(NC2=CC(=O)c3ccccc3C2=O)cc1 [Compound 3a, 2-(1,4-Phenylenediamine)-1,4-naphthoquinone] | 8.7 ± 1.3 µM | 23.4 ± 2.5% | 0.9 | -0.82 V | 80 mV | 80 mV | −0.82 V | −0.86 V | −1.42 V | 
4 | O=C1C=C(Nc2ccc(O)cc2)C(=O)c2ccccc21 [Compound 3b, 2-(4-aminophenol)-1,4-naphthoquinone] | 21.4 ± 3.9 µM | 16.4 ± 2% | 1.0 | -0.81 V |  | 70 mV | −0.81 V | −0.84 V |  | Epc [4, 7]: -0.84 V
5 | COc1ccc(NC2=CC(=O)c3ccccc3C2=O)cc1 [Compound 3c, 2-(4-methoxyaniline)-1,4-naphthoquinone] | 13 ± 1.8 µM | 25.9 ± 3% | 1.0 |  | 120 mV | 70 mV | −0.82 V | −0.86 V | −1.34 V | 
6 | N#Cc1ccc(NC2=CC(=O)c3ccccc3C2=O)cc1 [Compound 3d, 2-(4-aminobenzonitrile)-1,4-naphthoquinone] | 79.4 ± 1.4 µM | 25.8 ± 3% | 1.0 | -0.70 V | 80 mV | 80 mV | −0.70 V | −0.74 V |  | Epa [4, 7]: -0.66 V
7 | CCCCNC1=CC(=O)c2ccccc2C1=O [Compound 3e, 2-(butan-1-amine)-1,4-naphthoquinone] | 35.8 ± 1.5 µM | 48.3 ± 1.6% | 1.0 |  | 100 mV | 70 mV | −0.95 V | −0.98 V | −1.47 V | ∆E (II) ([4]; acetonitrile): 100 mV; E1/2 (II) ([4]; acetonitrile, vs SCE): −1.42 V
8 | CCN(CC)C1=CC(=O)c2ccccc2C1=O [Compound 3f, 2-(diethylamine)-1,4-naphthoquinone] | 64.7 ± 1.4 µM | 47.9 ± 2.5% | 1.0 | -0.94 V |  | 70 mV | −0.94 V | −0.97 V |  | Epc [4, 7]: -0.97 V
9 | Nc1ccc(NC2=CC(=O)C(=O)c3ccccc32)cc1 [Compound 4a] | 2.7 ± 1 µM | 51.7 ± 2.1% |  |  |  |  |  | −0.67 V |  | EC50 [2]: 3 µM; Epc [4, 7]: -0.67 V
10 | O=C1C=C(Nc2ccc(O)cc2)c2ccccc2C1=O [Compound 4b] | 7.1 ± 1.8 µM | 74.1 ± 1.1% |  |  |  |  |  | −0.61 V |  | IC50 [3]: 30 µM; Epc [4, 7]: -0.61 V
11 | COc1ccc(NC2=CC(=O)C(=O)c3ccccc32)cc1 [Compound 4c] | 6.5 ± 1.4 µM | 45.8 ± 2.9% |  |  |  |  |  | −0.67 V |  | 
12 | N#Cc1ccc(NC2=CC(=O)C(=O)c3ccccc32)cc1 [Compound 4d] | 26.8 ± 1.1 µM | 41.6 ± 2.4% |  |  |  |  |  | −0.47 V | −0.84 V | 
13 | CCCCNC1=CC(=O)C(=O)c2ccccc21 [Compound 4e, 4-(butan-1-amine)-1,2-naphthoquinone] | 26.8 ± 1.1 µM | 62.4 ± 1.5% |  | -0.71 V | 150 mV |  |  | −0.78 V |  | Epc [4, 7]: -0.78 V
14 | CCN(CC)C1=CC(=O)C(=O)c2ccccc21 [Compound 4f, 4-(diethylamine)-1,2-naphthoquinone] | 23.1 ± 1.7 µM | 54.7 ± 2% | 0.9 | -0.63 V | 120 mV |  |  | −0.52 V | −0.69 V | ∆E (II) ([4]; acetonitrile): 120 mV; E1/2 (II) ([4]; acetonitrile, vs SCE): −0.63 V
15 | O=C1C=C(Nc2ccc(Nc3ccccc3)cc2)c2ccccc2C1=O [Compound 4g] | 9.2 ± 2.3 µM | 75.3 ± 1.3% |  |  |  |  |  | −0.63 V | −1.43 V | 
16 | O=C1C=C(Nc2ccccc2O)c2ccccc2C1=O [Compound 4h] | 9.1 ± 3.3 µM | 85.3 ± 1.3% |  |  |  |  |  | −0.57 V | −0.98 V | IC50 [3]: 16 µM; inhibition at 50 µM [3, 5]: 85%
17 | COc1cccc2c1C(=O)c1c(O)c3c(c(O)c1C2=O)C[C@@](O)(C(=O)CO)C[C@@H]3O[C@H]1C[C@H](N)[C@H](O)[C@H](C)O1 [Doxorubicin, doxorubicin, reference compound] | 1.42 ± 1 µM |  |  |  |  |  |  |  |  | EC50 [2]: 1.4 µM

— paper PMC9919139, “Sustainable Synthesis, Antiproliferative and Acetylcholinesterase Inhibition of 1,4- and 1,2-Naphthoquinone Derivatives” (Molecules, 2023)
